In assay [1] the test system is airway epithelia in mice. Put plainly: MCC number in airway epithelium of Foxj1-GFP mice after intraperitoneal GSI. The assay is classed as in vivo, mouse. Here is the method: 10-40 week age-matched male and female Foxj1-GFP mice were given semagacestat or vehicle by intraperitoneal (IP) administration. In the first experiment, semagacestat was administered at 0.1 mg/kg and 1 mg/kg twice daily for three days and compared to vehicle alone. Mice were sacrificed on day 7. […] In approximately similar sized, PFA-fixed airways, nuclei (red; DAPI) were scored either as MCCs (green; GFP) or non-ciliated cells (absence of GFP). Acetylated tubulin (blue) marks cilia. Samples were blinded for treatment group prior to scoring.
In the second experiment, vehicle and semagacestat were administered once daily for 5 consecutive days per week for three weeks, with a semagacestat dose of 1 mg/kg. An important observed toxicity in multiple GSI clinical trials, including large Alzheimer's Disease trials, was gastrointestinal toxicity. As a surrogate measure of GI toxicity, we monitored body weight throughout the experiment. Body weight was measured on Days 1, 9, 24 and 30, and mice were sacrificed on day 31.
The impact of LY450139 in mouse models of neurodegeneration has been studied extensively (27,28). In these models, LY450139 were administered systemically for weeks to months at a time at up to 100 mg/kg. It was sought to determine if a substantially lower dose administered for a shorter duration would be sufficient to induce an increase in the proportion of multiciliated cells in the intact airway epithelium of healthy adult mice. Mice were first treated with 1 or 0.1 mg/kg of LY450139, 10 mg/kg DAPT or vehicle control twice daily for three consecutive days via intraperitoneal injection and then assessed on day 7 (FIG. 42A). To quantitate multiciliated cells, treatments were carried out in Foxj1/EGFP transgenic mice that expresses cytoplasmic GFP under the multiciliated cell specific Foxj1 promoter (32). Multiciliated cell number was quantitated in airways of similar size in lung tissue sections. Cells were identified by DAPI nuclear staining and were counted as multiciliated if the DAPI staining overlapped with GFP signal (FIG. 42B).
Mouse husbandry and GSI treatment in mice. Foxj1/EGFP mice have been previously described (32,44). 10-40 week age-matched male and female Foxj1/EGFP mice were treated with LY450139 or vehicle control by intraperitoneal (IF) administration. In the first experiment, 0.1 mg/kg, or 1 mg/kg LY450139, 10 mg/kg DAPT or saline vehicle was administered twice daily for three consecutive days, then the mice were sacrificed on day 7. In the second experiment, 1 mg/kg LY450139 or saline vehicle was administered once daily for five consecutive days per week for three weeks, then the mice were sacrificed on day 30. Body weight was monitored as a surrogate measure of GI toxicity. For both studies, the lungs were cryoembedded en bloc in OCT compound (Thermo Fisher). Cryosections were formalin fixed, then labeled with anti-GFP and acetylated α-Tubulin antibodies and stained with DAPI to mark nuclei. Images were acquired using a Leica SP8 confocal microscope and analyzed by three independent blinded investigators. In airways of approximately uniform size viewed in cross section, cells were first identified by DAPI signal, and then scored either as multiciliated cells (GFP positive) or nonciliated cells (GFP negative). Ac. α-Tubulin signal was used as an additional identifying feature for multiciliated cells. All procedures involving animals were approved by the Institutional Animal Care and Use Committee of Stanford University School of Medicine in accordance with established guidelines for animal care.

The test system of assay [2] is primary cystic fibrosis airway epithelial cells. Description: MCC formation in cystic fibrosis airway epithelial cultures. Conditions: for multiciliated cell formation in mature CF cultures: mature (ALI+30d) CF cultures treated one week (ALI+30 to +37d); for MCC differentiation with semagacestat in combination with Lumacaftor (and Ivacaftor): semagacestat ALI+0-21d, Lumacaftor ALI+19-21d, Ivacaftor ten minutes, wild-type and CF cultures; for MCC/total cell ratio in CF patient-derived cultures: treated during differentiation only (ALI+0 to +21d), homemade medium. In kind it is cell-based, human. The protocol:
To assess the effects of combining semagacestat and CFTR modulator treatment, wild-type control and CF (F508AIF5080) HNEC cultures were grown to maturity with or without semagacestat from ALI+0-21d and cultures were treated with or without Lumacaftor (VX-809) from ALI+19-21d and Ivacaftor (VX-770) for ten minutes prior to fixation. PFA fixed membranes were then stained for Acetylated tubulin (green; MCCs) and E-Cadherin (red).
Primary healthy and cystic fibrosis airway epithelial cells were treated with semagacestat (LY45139) during differentiation only (ALI+0 to +21 d) and labeled at ALI+21d with anti-acetylated α-Tubulin (green) and ECAD (red) antibodies. […] Restoration of a healthy MCC/total cell ratio is expected to improve mucociliary clearance.
Mature (ALI+30d) primary cystic fibrosis human airway epithelial cells were treated with DAPT for one week (ALI+30 to +37d), then labeled with anti-acetylated α-Tubulin (green) and ECAD (red) antibodies.
As observed in healthy HNECs, GSI-induced multiciliated cells in CF HNECs are structurally normal, and GSI treatment in both differentiating and mature CF cultures can mitigate multiciliated cell loss (FIG. 41, 43A-B).
Primary human nasal epithelial cell (HNEC) cultures. […] Primary air-liquid interface (ALI) culture of nasal epithelial cells from passage 0 (P0) or P1 basal stem cells was carried out as previously described (24,30). Briefly, cells are removed from cytobrushes with gentle enzymatic digestion. P0 HNEC cultures are initiated by seeding freshly isolated cells onto Collagen I coated Transwell filters. P1 HNEC cultures are initiated from basal cells that were first expanded on Collagen I coated plastic dishes in proliferation medium supplemented with Y-27632 (ROCK inhibitor, 10 μM), DMH-1 (BMP inhibitor, 1 μM), A-83-01, (TGF-β inhibitor, 1 μM), and CHIR99021 (WNT agonist, 1 μM)(42), all from Selleckchem. HNECs seeded onto Transwells are initially cultured submerged in proliferation medium until confluency, then lifted to ALI (considered as ALI+0d of culture) by supplying differentiation medium only from the bottom compartment. HNECs are considered mature at ALI+21d of culture. Healthy and CF HNECs used in the study were cultured in homemade media (24). CF HNECs used for the Ussing chamber measurements only were cultured in Pneumacult Ex+(proliferation) and Pneumacult ALI (differentiation) media (Stemcell). […] Healthy HNECs were treated with 10 ng/ml recombinant human IL-13 (RnD Systems).

Structures are written as SMILES. Entries after “also recorded” stand apart in the source; their conditions may differ.

As to `C[C@H](NC(=O)Cc1cc(F)cc(F)c1)C(=O)NC(C(=O)OC(C)(C)C)c1ccccc1` (some centres unmarked) [DAPT], in assay [1] (10 mg/kg DAPT IP twice daily for three days, assessed day 7), the “number of multiciliated cells in airways” value is “modest, but statistically significant increase in the number of multiciliated cells”. For the same molecule, the “multiciliated cell formation in mature CF cultures” value is reported as “induces the formation of additional multiciliated cells in mature cystic fibrosis cultures; also recorded: induces the formation of additional multiciliated cells in mature CF cultures” in assay [2] and “induces the formation of additional multiciliated cells in mature cystic fibrosis cultures” in assay [2] (listed as DAFT).

Regarding `CC(C)[C@H](O)C(=O)N[C@@H](C)C(=O)N[C@@H]1C(=O)N(C)CCc2ccccc21` [semagacestat, (2S)-2-hydroxy-3-methyl-N-[(1 S)-1-methyl-2-oxo-2-[[(1 S)-2,3,4,5-tetrahydro-3-methyl-2-oxo-1H-3-benzazepin-1-yl]amino]ethyl]-butamide], the “ratio of ciliated to non-ciliated cells / multiciliated cell number in airways” value was “increase in the ratio of ciliated to non-ciliated cells” in assay [1] (0.1 mg/kg IP twice daily for three days, assessed day 7); “trend towards more multiciliated cells that did not reach statistical significance” in assay [1] (0.1 mg/kg IP twice daily for three days, assessed day 7, listed as LY450139); “significant increase in the ratio of ciliated to non-ciliated cells” in assay [1] (1 mg/kg IP once daily, 5 consecutive days per week for three weeks, assessed day 30/31); “induced an increase in the proportion of multiciliated cells; also recorded: efficacious; also recorded: increased multiciliated cell number” in assay [1] (1 mg/kg IP once daily, 5 consecutive days per week for three weeks, assessed day 30/31, listed as LY450139); “increase in the ratio of ciliated to non-ciliated cells” in assay [1] (1 mg/kg IP twice daily for three days, assessed day 7); “modest, but statistically significant increase in the number of multiciliated cells; also recorded: sufficient to increase multiciliated cell numbers; also recorded: increased multiciliated cell number” in assay [1] (1 mg/kg IP twice daily for three days, assessed day 7, listed as LY450139). The “MCC differentiation with semagacestat in combination with Lumacaftor (and Ivacaftor)” value is listed as “as well as or better than cultures treated with semagacestat alone; also recorded: no significant decrease in semagacestat-induced MCC response was seen” in assay [2] and “effective at increasing the percentage of MCCs in the presence of Lumacaftor” in assay [2] (listed as Semagacestat). Besides, the “MCC response of CF patients not eligible for Trikafta” value in assay [2] (semagacestat alone, not shown) is listed as “respond to semagacestat alone similarly to those on corrector therapy”. Moreover, the “MCC/total cell ratio in CF patient-derived cultures” value in assay [2] (listed as LY45139) is recorded as “effective in increasing MCC/total cell ratio”; in assay [2] (listed as LY450139), “similarly normalized proportion of multiciliated cells; also recorded: restores multiciliated cell numbers in CF cultures; also recorded: increases multiciliated cell number in CF cultures”.

Source of the values: US20260183306A1, “Methods for Treating Respiratory Diseases Characterized by Mucus Hypersecretion” (The Board of Trustees of the Leland Stanford Junior …, priority 2022, published 2026).
